Measurements from patent publication US20150177246A1, “FUSION GENE OF CEP55 GENE AND RET GENE” (NATIONAL CANCER CENTER, priority 2012, published 2015).

System: downstream signals (STAT3, AKT, MAPK) of the CEP55-RET fusion polypeptide in NIH-3T3 cells
Assay: Western blotting of downstream signals of the RET fusion polypeptide after serum starvation and culture with a RET tyrosine kinase inhibitor
Type: cell-based, murine
Conditions: inhibitor 1 μM in medium after serum starvation; NIH-3T3 cells expressing wild-type CEP55-RET; FIG. 7
Description: In this figure, “CEP55-RET” represents the results for cell lines expressing the CEP55-RET fusion polypeptide, and “KIF5B-RET” represents the results for cell lines expressing the KIF5B-RET fusion polypeptide. […] The “STAT3” and “p-STAT3 (Y705)” rows show the results of detecting STAT3 and phosphorylated STAT3, respectively. The “AKT” and “p-AKT (S473)” show the results of detecting AKT and phosphorylated AKT, respectively. The “MAPK” and “p-MAPK (T202/Y204)” rows show the results of detecting MAPK and phosphorylated MAPK, respectively.
Next, normal murine fibroblast line NIH-3T3 cells were infected with each of the thus-prepared retroviral vectors to obtain cell lines stably expressing the wild-type or the mutated CEP55-RET fusion polypeptide.
In addition, the cell lines stably expressing the wild-type or the mutated RET fusion polypeptide were each cultured in a liquid medium, subjected to serum starvation, and then cultured again with the medium being replaced with the one supplemented with a RET tyrosine kinase inhibitor (vandetanib or XL184). Protein from each of the thus-obtained cell lines was extracted and subjected to Western blotting analysis using antibodies against various phosphorylated or unphosphorylated proteins to thereby analyze the downstream signals of the RET fusion polypeptides.

COc1cc2c(Nc3ccc(Br)cc3F)ncnc2cc1OCC1CCN(C)CC1 [V, 4-(4-bromo-2-fluoroanilino)-6-methoxy-7-(1-methylpiperidin-4-ylmethoxy)quinazoline]
phosphorylation of MAPK, p-MAPK (T202/Y204705): significantly suppressed | phosphorylation of STATS, p-STAT3 (Y705): significantly suppressed
